Marks after values point to notes of the source that are not given here.
Columns and labels:
Type in all cases: in vivo
[1] = Food intake, body weight and body composition in diet-induced obese (DIO) mice; conditions: for reduction of cumulative food intake compared to the vehicle group: end of 2-week study; for Fat mass loss (g fat weight change for 14 days) / Overall weight loss (g weight change for 14 days) / Total food intake (g total for 14 days): mean ± SEM
Experimental: Three to four months old male diet-induced obese (DIO) mice are individually housed in a temperature-controlled (24° C.) facility with a 12 hour light/dark cycle (lights on 22:00), and have free access to food and water. After 2 weeks acclimation to the facility, mice are randomized to treatment groups (n=8-10/group), each group having similar mean body weight and fat mass. Mice are subcutaneously (sc) injected with vehicle solution and weighed for 2 days to acclimate them to the procedures.
Body weight and the weight of food plus the hopper are measured at the same time. Food consumed in the preceeding 24 hours is calculated by subtracting current weight of food plus the hopper from that of the previous day. Absolute changes in body weight are calculated by subtracting the body weight of the animal prior to the first injection. On days 1 and 14 total fat mass is measured by nuclear magnetic resonance (NMR) using an Echo Medical System (Houston, Tex.) instrument. Fat free mass is calculated by subtracting fat mass from total body weight.

[2] = Oral glucose tolerance test in ob/ob mice; conditions: for Glucose AUC, MEAN: OGTT, 0 to 120 min
Experimental: (§1) Two to three months old male ob/ob mice are individually housed in a temperature-controlled (24° C.) facility with a 12 hour light/dark cycle (lights on 2200 hours), and have free access to food and water. After at least 2 weeks of acclimation to the facility, 3-hours fasting blood glucose is measured by tail vein bleeding at 9 AM. Mice with blood glucose under 180 mg/dL are not used. Remaining animals are randomized to treatment groups (N=7/group), each group having similar average blood glucose level. The mice are given access to food until the time of injection. […] Food is removed at the time of injection. An OGTT (Table 7) or IPGTT (Table 8) is performed 16 hours after the peptide injection. At time 0, animals are given 2 g/kg dextrose by oral gavage (Table 7) or intraperitoneal injection (Table 8). Blood is collected by tail vein bleeding at 0, 15, 30, 60 and 120 minutes after glucose challenge. Blood glucose concentration is measured by glucometer.

[3] = Intraperitoneal glucose tolerance test after 2-week treatment in DIO mice; conditions: ip glucose load 2 g/kg, 0 to 120 min
Experimental: (§2) Fifty-six hours after the fifth injection as described in Example 7 in DIO mice, mice are fasted for 16 hours prior to the start of the glucose tolerance test. At time 0, animals are given 2 g/kg dextrose by oral gavage (Table 3, Study 1) or intraperitoneal (IP) injection (Table 4, Study 2). Blood is collected by tail vein bleeding at 0, 15, 30, 60 and 120 minutes after glucose challenge. Glucose concentration is measured by glucometer.

[4] = Intraperitoneal glucose tolerance test in ob/ob mice; conditions: IPGTT, 0 to 120 min, 7.5 nmole/kg 16 hours before
Experimental: as §1

[5] = Oral glucose tolerance test after 2-week treatment in DIO mice; conditions: for Glucose AUC, MEAN: oral glucose load 2 g/kg, 0 to 120 min
Experimental: as §2

[6] = Intraperitoneal glucose tolerance test in lean mice; conditions: IPGTT; for Glucose AUC, MEAN: 0 to 30 min; for Insulin AUC, MEAN: plasma insulin 0 to 30 min
Experimental: Nine week old male C57BL/6 mice are used in the study Animals are randomized into groups based on fed body weight. […] Food is removed at the time of injection of peptide or vehicle. At time 0, animals are given 2 g/kg dextrose by IP injection. Blood is collected by tail vein bleeding at 0, 3, 6, 12 and 30 minutes after glucose challenge. Glucose concentration is measured by glucometer. Insulin is measure by Mesoscale.

[7] = Study 1, DIO mice, 7.5 nmole/kg sc every 3 days
[8] = Study 1, DIO mice, 15 nmole/kg sc every 3 days
[9] = Study 1, DIO mice, 30 nmole/kg sc every 3 days
[10] = Study 2, DIO mice, 7.5 nmole/kg sc every 3 days
[11] = Study 2, DIO mice, 22.5 nmole/kg sc every 3 days

His-(D-Ser)-Gln-Gly-Thr-Phe-Thr-Ser-Asp-(1-Nal)-Ser-Lys-Tyr-Leu-Asp-Glu-Lys-Ala-Ala-Gln-Glu-Phe-Val-Gln-Trp-Leu-Leu-Asn-(Aib)-Ala-Arg-Asn-Arg-Asn-Asn-Ile-Ala-Cys(20 kDa PEG)-Cys(20 kDa PEG)
cumulative weight loss compared to the vehicle group ([1]; Study 1, 7.5 nmole/kg every 3 days, 2 weeks): about 6% | vehicle controlled cumulative weight loss ([1]; Study 1, 15 nmole/kg every 3 days, 2 weeks): 10% | reduction of cumulative food intake compared to the vehicle group ([1]; Study 1, 15 nmole/kg): 21% | vehicle controlled cumulative weight loss ([1]; Study 1, 30 nmole/kg every 3 days, 2 weeks): 15% | reduction of cumulative food intake compared to the vehicle group ([1]; Study 1, 30 nmole/kg): 27% | Fat mass loss (g fat weight change for 14 days) [1, 7]: -1.1 ± 0.3 g | Overall weight loss (g weight change for 14 days) [1, 7]: -1.7 ± 0.3 g | Total food intake (g total for 14 days) [1, 7]: 36.5 ± 1.2 g | Fat mass loss (g fat weight change for 14 days) [1, 8]: -2.7 ± 0.2 g | Overall weight loss (g weight change for 14 days) [1, 8]: -3.5 ± 0.3 g | Total food intake (g total for 14 days) [1, 8]: 31.4 ± 0.9 g | Fat mass loss (g fat weight change for 14 days) [1, 9]: -4.0 ± 0.3 g | Overall weight loss (g weight change for 14 days) [1, 9]: -5.6 ± 0.4 g | Total food intake (g total for 14 days) [1, 9]: 29.0 ± 1.3 g | Fat mass loss (g fat weight change for 14 days) [1, 10]: -1.6 ± 0.2 g | Overall weight loss (g weight change for 14 days) [1, 10]: -2.5 ± 0.3 g | Total food intake (g total for 14 days) [1, 10]: 33.3 ± 0.6 g | Fat mass loss (g fat weight change for 14 days) [1, 11]: -3.8 ± 0.2 g | Overall weight loss (g weight change for 14 days) [1, 11]: -5.2 ± 0.2 g | Total food intake (g total for 14 days) [1, 11]: 28.7 ± 0.6 g | decrease of body weight ([1]; Study 2, high dose (22.5 nmole/kg) every 3 days, 2 weeks): ~10% | decrease of body weight ([1]; Study 2, low dose (7.5 nmole/kg) every 3 days, 2 weeks): about 5% | Glucose AUC, MEAN ([2]; 7.5 nmole/kg 16 hours before): 12103* mg*min/dL | Glucose AUC, MEAN ([2]; 15 nmole/kg 16 hours before): 14837* mg*min/dL | blood glucose in ob/ob mice ([2]; single injection): normalized blood glucose | Glucose AUC, MEAN ([3]; 7.5 nmole/kg): 19198* mg*min/dL | Glucose AUC, MEAN ([3]; 22.5 nmole/kg): 15720* mg*min/dL | Glucose AUC, MEAN [4]: 16944* mg*min/dL | blood glucose at all time points before and after the oral glucose challenge vs vehicle ([5]; all doses): significantly lowered | Glucose AUC, MEAN ([5]; 7.5 nmole/kg): 13802* mg*min/dL | Glucose AUC, MEAN ([5]; 15 nmole/kg): 12668* mg*min/dL | Glucose AUC, MEAN ([5]; 30 nmole/kg): 13056* mg*min/dL | Glucose AUC, MEAN ([6]; 5 nmole/kg 16 hours before): 6287* mg*min/dL | Glucose AUC, MEAN ([6]; 15 nmole/kg 16 hours before): 6881* mg*min/dL | Insulin AUC, MEAN ([6]; 5 nmole/kg): 33.29* ng*min/mL | Insulin AUC, MEAN ([6]; 15 nmole/kg): 58.32* ng*min/mL
